Where only a bound is given, the exact number is not on record here.

Experimental findings from ChEMBL document CHEMBL4651402, “Screening of ~5500 FDA-approved drugs and clinical candidates for anti-SARS-CoV-2 activity” (2021) are described below.

For one test, the system named is SARS-CoV-2. Kind of test: microbe, parasite or virus in culture. The following applies: Severe acute respiratory syndrome coronavirus 2, Vero C1008, 48 h.
`CC(C)(CO)C(O)C(=O)NCCCC(=O)O` (stereo unspecified): the IC50 was greater than 20 µM.

In turn, `NCCCCCC(=O)O` [AMINOCAPROIC ACID] displayed an IC50 greater than 20 µM.

For the molecule `O=C(O)C[C@H](O)C[C@H](O)/C=C/c1c(C2CC2)nc2ccccc2c1-c1ccc(F)cc1` [PITAVASTATIN], the IC50 was greater than 50.1 µM.

For the molecule `CC1=C(CC(=O)O)c2cc(F)ccc2/C1=C\c1ccc([S+](C)[O-])cc1` (stereo unspecified), the IC50 was greater than 20 µM.

The molecule `O=C1c2ccccc2-c2cccc3cccc1c23` [BENZANTHRONE] yielded an IC50 greater than 20 µM.

With `CN(C)C(=N)NC(=N)N` [METFORMIN], the IC50 was greater than 20 µM.

Molecule `COc1c2occc2c(OC)c2c(=O)cc(C)oc12` [KHELLIN] returned an IC50 greater than 20 µM.

`CN1CCC[C@@H]1Cc1c[nH]c2ccc(CCS(=O)(=O)c3ccccc3)cc12` yielded an IC50 greater than 20 µM.

`CC(Oc1ccccc1)C(=O)N[C@@H]1C(=O)N2[C@@H]1SC(C)(C)[C@@H]2C(=O)O` (stereo partly specified) [PHENETHICILLIN] had an IC50 greater than 20 µM.

With `CC(C(=O)O)c1ccc(C(=O)c2cccs2)cc1` (stereo unspecified) [SUPROFEN], the IC50 is greater than 20 µM.

In the case of `CCN(CC)Cc1cc(Nc2ccnc3cc(Cl)ccc23)ccc1O` [AMODIAQUINE], the IC50 was greater than 20 µM.

`Cc1cc(C(C)(C)CC(C)(C)C)ccc1OCCOCC[N+](C)(C)Cc1ccccc1` [METHYLBENZETHONIUM] yielded an IC50 greater than 20 µM.

`CC(C)(Oc1ccc(C2CCCc3ccccc32)cc1)C(=O)O` (stereo unspecified) [NAFENOPIN] gave an IC50 greater than 20 µM.

Molecule `CCCCn1ccc(N2CCC(c3ccccc3)CC2)c(Cl)c1=O` [JNJ-40411813] came in with an IC50 greater than 20 µM.

The molecule `NC(=O)c1nnn(Cc2cc(Cl)c(C(=O)c3ccc(Cl)cc3)c(Cl)c2)c1N` [CARBOXYAMIDOTRIAZOLE] showed an IC50 greater than 20 µM.

On to `CC1(C)[C@H](C(=O)O)N2C(=O)C[C@H]2S1(=O)=O` [SULBACTAM], for which the IC50 is greater than 20 µM.

`Oc1ccc(O)cc1` [HYDROQUINONE] registered an IC50 greater than 20 µM.

In the case of `O=c1[nH]c(=O)n([C@H]2C[C@H](O)[C@@H](CO)O2)cc1Br` [BROXURIDINE], the IC50 is greater than 50.1 µM.

On to `CC1(O)CCC2C3CCC4=CC(=O)CCC4C3CCC21C` (stereo unspecified), for which the IC50 was greater than 20 µM.

`NCCCC(N)(C(=O)O)C(F)F` (stereo unspecified) [EFLORNITHINE] returned an IC50 greater than 20 µM.

The molecule `COc1cc2c(cc1O)[C@@H]1Cc3ccc(OC)c(O)c3CN1CC2` [SCOULERINE] registered an IC50 greater than 20 µM.

The molecule `COc1ccccc1N1CCN(CCCC(=O)c2ccc(F)cc2)CC1` [FLUANISONE] had an IC50 greater than 20 µM.

`CCN1CCN(C(=O)N[C@@H](C(=O)N[C@@H]2C(=O)N3C(C(=O)O)=C(CSc4nnnn4C)CS[C@H]23)c2ccc(O)cc2)C(=O)C1=O` [CEFOPERAZONE] showed an IC50 greater than 20 µM.

For `O=C(CCCN1CCC(n2c(=O)[nH]c3ccccc32)CC1)c1ccc(F)cc1` [BENPERIDOL], the IC50 is greater than 20 µM.

`C#C[C@]1(CO)O[C@@H](n2cnc3c(N)nc(F)nc32)C[C@@H]1O` returned an IC50 greater than 20 µM.

Regarding `Oc1c(Cl)cc(Cl)c(Cl)c1Cc1c(O)c(Cl)cc(Cl)c1Cl` [HEXACHLOROPHENE], the IC50 is greater than 20 µM.

Regarding `CC(C)Oc1ccc2c(=O)c(-c3ccccc3)coc2c1` [IPRIFLAVONE], the IC50 is greater than 20 µM.

In turn, `CN(C)CCc1ccc(O)cc1` [HORDENINE] displayed an IC50 greater than 20 µM.

Regarding `CCCCC[C@H](O)/C=C/[C@H]1[C@H](O)CC(=O)[C@@H]1C/C=C\CCCC(=O)O` [DINOPROSTONE], the IC50 was greater than 20 µM.

In the case of `CN1CCC23CCCCC2C1Cc1ccc(O)cc13` (stereo not drawn) [RACEMORPHAN], the IC50 is greater than 20 µM.

`O=C(O)c1cc(=O)c2ccccc2o1` [CHROMOCARB] displayed an IC50 greater than 20 µM.

The molecule `CCCCC/C=C\C/C=C\CCCCCCCC(=O)O` [LINOLEIC ACID] came in with an IC50 greater than 20 µM.

In the case of `CC#CC(=O)N1CCC[C@@H]1c1nc(-c2ccc(C(=O)Nc3ccccn3)cc2)c2c(N)nccn12`, the IC50 was greater than 20 µM.

Staying with this test, now noted: Severe acute respiratory syndrome coronavirus 2, Vero C1008, 48 h, read-out: pIC50 (converted).
Take `CC(C)(CO)C(O)C(=O)NCCCC(=O)O` (stereo unspecified): the IC50 is greater than 20 µM.

Regarding `NCCCCCC(=O)O` [AMINOCAPROIC ACID], the IC50 is greater than 20 µM.

As for `O=C(O)C[C@H](O)C[C@H](O)/C=C/c1c(C2CC2)nc2ccccc2c1-c1ccc(F)cc1` [PITAVASTATIN], the IC50 was greater than 50.1 µM.

For the molecule `CC1=C(CC(=O)O)c2cc(F)ccc2/C1=C\c1ccc([S+](C)[O-])cc1` (stereo unspecified), the IC50 was greater than 20 µM.

For `O=C1c2ccccc2-c2cccc3cccc1c23` [BENZANTHRONE], the IC50 was greater than 20 µM.

As to `CN(C)C(=N)NC(=N)N` [METFORMIN], the IC50 is greater than 20 µM.

Regarding `COc1c2occc2c(OC)c2c(=O)cc(C)oc12` [KHELLIN], the IC50 is greater than 20 µM.

On to `CN1CCC[C@@H]1Cc1c[nH]c2ccc(CCS(=O)(=O)c3ccccc3)cc12`, for which the IC50 is greater than 20 µM.

With `CC(Oc1ccccc1)C(=O)N[C@@H]1C(=O)N2[C@@H]1SC(C)(C)[C@@H]2C(=O)O` (stereo partly specified) [PHENETHICILLIN], the IC50 was greater than 20 µM.

Turning to `CC(C(=O)O)c1ccc(C(=O)c2cccs2)cc1` (stereo unspecified) [SUPROFEN], the IC50 was greater than 20 µM.

For the molecule `CCN(CC)Cc1cc(Nc2ccnc3cc(Cl)ccc23)ccc1O` [AMODIAQUINE], the IC50 is greater than 20 µM.

With `Cc1cc(C(C)(C)CC(C)(C)C)ccc1OCCOCC[N+](C)(C)Cc1ccccc1` [METHYLBENZETHONIUM], the IC50 was greater than 20 µM.

Regarding `CC(C)(Oc1ccc(C2CCCc3ccccc32)cc1)C(=O)O` (stereo unspecified) [NAFENOPIN], the IC50 is greater than 20 µM.

Regarding `CCCCn1ccc(N2CCC(c3ccccc3)CC2)c(Cl)c1=O` [JNJ-40411813], the IC50 was greater than 20 µM.

As to `NC(=O)c1nnn(Cc2cc(Cl)c(C(=O)c3ccc(Cl)cc3)c(Cl)c2)c1N` [CARBOXYAMIDOTRIAZOLE], the IC50 is greater than 20 µM.

Take `CC1(C)[C@H](C(=O)O)N2C(=O)C[C@H]2S1(=O)=O` [SULBACTAM]: the IC50 is greater than 20 µM.

With `Oc1ccc(O)cc1` [HYDROQUINONE], the IC50 is greater than 20 µM.

Regarding `O=c1[nH]c(=O)n([C@H]2C[C@H](O)[C@@H](CO)O2)cc1Br` [BROXURIDINE], the IC50 is greater than 50.1 µM.

Turning to `CC1(O)CCC2C3CCC4=CC(=O)CCC4C3CCC21C` (stereo unspecified), the IC50 is greater than 20 µM.

For the molecule `NCCCC(N)(C(=O)O)C(F)F` (stereo unspecified) [EFLORNITHINE], the IC50 is greater than 20 µM.

For the molecule `COc1cc2c(cc1O)[C@@H]1Cc3ccc(OC)c(O)c3CN1CC2` [SCOULERINE], the IC50 is greater than 20 µM.

Take `COc1ccccc1N1CCN(CCCC(=O)c2ccc(F)cc2)CC1` [FLUANISONE]: the IC50 is greater than 20 µM.

As to `CCN1CCN(C(=O)N[C@@H](C(=O)N[C@@H]2C(=O)N3C(C(=O)O)=C(CSc4nnnn4C)CS[C@H]23)c2ccc(O)cc2)C(=O)C1=O` [CEFOPERAZONE], the IC50 is greater than 20 µM.

On to `O=C(CCCN1CCC(n2c(=O)[nH]c3ccccc32)CC1)c1ccc(F)cc1` [BENPERIDOL], for which the IC50 was greater than 20 µM.

In the case of `C#C[C@]1(CO)O[C@@H](n2cnc3c(N)nc(F)nc32)C[C@@H]1O`, the IC50 is greater than 20 µM.

As for `Oc1c(Cl)cc(Cl)c(Cl)c1Cc1c(O)c(Cl)cc(Cl)c1Cl` [HEXACHLOROPHENE], the IC50 is greater than 20 µM.

In the case of `CC(C)Oc1ccc2c(=O)c(-c3ccccc3)coc2c1` [IPRIFLAVONE], the IC50 was greater than 20 µM.

Consider `CN(C)CCc1ccc(O)cc1` [HORDENINE], for which the IC50 was greater than 20 µM.

For `CCCCC[C@H](O)/C=C/[C@H]1[C@H](O)CC(=O)[C@@H]1C/C=C\CCCC(=O)O` [DINOPROSTONE], the IC50 was greater than 20 µM.

Consider `CN1CCC23CCCCC2C1Cc1ccc(O)cc13` (stereo not drawn) [RACEMORPHAN], for which the IC50 is greater than 20 µM.

For the molecule `O=C(O)c1cc(=O)c2ccccc2o1` [CHROMOCARB], the IC50 was greater than 20 µM.

In the case of `CCCCC/C=C\C/C=C\CCCCCCCC(=O)O` [LINOLEIC ACID], the IC50 was greater than 20 µM.

As for `CC#CC(=O)N1CCC[C@@H]1c1nc(-c2ccc(C(=O)Nc3ccccn3)cc2)c2c(N)nccn12`, the IC50 was greater than 20 µM.
